Measurements as given in patent US9034895B2, “Composition and methods for treating glioblastoma” (University of Washington Through its Center for …, priority 2010, dated 2015).

Tests used:
U251 flank tumors = U251 flank tumors in nude mice, tumor growth; type: in vivo
Description: Nude mice that had been implanted with U251 flank tumors were treated with a daily regimen of JWH-451. This experiment was performed as follow: 10^6 U251 cells were implanted in the flanks of nude mice and the tumor was allowed to grow until it reached a size of 250 mm^3, at which point the mice were enrolled in daily treatment. Tumor growth was then measured and expressed as a function of initial tumor size.

DBT tumors = experiment: Lymphocyte and brain macrophage invasion of DBT tumors implanted in mouse brain; type: in vivo, mice (BALB/c); settings: daily i.p. (40 mg/Kg per FIG. 7), tumors implanted three weeks in mouse brain
Description: Effect of JWH-451 on the immune cell invasion of syngenic mouse model of astrocytomas tumors (mouse astrocytoma cell implanted into the brain of wild type mice hosts with intact immune systems) was measured. Briefly, mice (BALB/c, 8 week-old, male, Charles River) were used for this study and housed under specific-pathogen-free conditions for at least one week prior to surgery. Twenty-four hours before surgery, 5×10^6 DBT cells were harvested in 10 ml of DMEM supplemented with 10% heat-inactivated FBS, 10 U/ml penicillin and 10 μg/ml streptomycin and seeded in T75 cm^2 cell culture flasks (one flask per mouse). Just before surgery, cells from one flask were detached with trypsin-EDTA, recovered in DMEM supplemented with 10% heat-inactivated FBS, centrifuged/rinsed twice with MEM (serum free) and resuspended at 10^6 cells/u1 of ice-cold MEM (ready for injection). Mice were anesthetized with ketamine/xylazine (given […] i.p., 130 mg/kg ketamine/8.8 mg/kg xylazine) and placed in a stereotactic instrument (David Kopf Instruments, CA) on an isothermal pad (Deltaphase®, Braintree Scientific, Inc, Braintree, Mass.). After midline incision of the scalp, a 25-G needle was used to perform a craniostomy at 2 mm cranial from bregma and 1.5 mm left lateral. […]

U251, A172 and GBM8 = experiment: Toxic profile in human astrocytoma cell lines; type: cell-based; settings: range over the three cell lines (FIG. 4), read-out: potency at killing human astrocytoma cell lines U251, A172 and GBM8
Description: Cells were plated media supplemented with 10% serum in 96-well plates (10^4 cells per wellI; 0.1 ml per well). Once they reached ˜70% confluence, they were rinsed with PBS and kept for an additional 24 hrs in media supplemented with 1% serum, at which time drugs or vehicle (DMSO, 0.1%, prepared in 10 μl serum-free media) were directly added to each well. After 3 days, cell viability was assessed using the Cell Proliferation Reagent WST-1 (Roche, Indianapolis, Ind.). Briefly, WST-1 reagent (10 μl) was added to each well for 3 hrs at 37° C. with 5% CO2 and WST-1 products were read at 450 nm using Packard SpectraCount™.
JWH-451 was tested for toxicity in cells expressing GPR124.

## CCn1c(C)c(C(=O)c2ccc(C)c3ccccc23)c2ccccc21 [JWH-451, 1-Ethyl-2-methyl-3-(4-methyl-1-napthoyl)indole]
U251 flank tumors; daily i.p. injection 15 mg/Kg, U251 flank tumors, nude mice
  tumor growth in vivo: significantly reduced tumor growth
U251 flank tumors; daily i.p. injections 5 mg/Kg (FIG. 5 legend), compared to controls
  growth of U251 gliomas implanted in the flanks of nude mice: inhibits the growth
DBT tumors
  brain macrophage density / number invading DBT tumors: two fold increase
  lymphocyte density / number invading DBT tumors: two fold increase
U251, A172 and GBM8
  EC50: 2 to 4 µM
